From article PMC11212140, “Molecular Bidents with Two Electrophilic Warheads as a New Pharmacological Modality” (ACS Central Science, 2024)
Like-named read-outs stand apart in the source and are kept apart here.

Key:
[1] = system: EGFR^L858R Ba/F3 cells; experiment: Antiproliferation assay (CellTiter-Glo); assay type: cell-based; settings: vs ZNL-0056 and ZNL-0091
Procedure: (§1) Figure S6 Dose-response curves for the indicated compounds in EGFRL858R, EGFRL858R/C797S, and EGFRL858R/C775S Ba/F3 cells following 72 h of treatment. Cell viability was assessed with CellTiter-Glo.
(§2) Data are presented as the mean ± SEM (n = 4). Representative data from three independent experiments
(§3) (1 picture or pasted object on this page, not shown here)
(§4) For infection of Ba/F3 cells, 2.5 mL of viral supernatant and 8 μg/mL polybrene was added to 2.5 million cells per well in six-well plates. The plate was centrifuged at 2500 rpm for 90 minutes at 37 °C for the spin infection. Then, virus-containing medium was removed 48 hours later and successfully infected cells were selected with the addition of 1 μg/mL puromycin to the medium.
(§5) After 3 days, cells were transferred into the fresh medium without IL-3 and puromycin. IL-3-independent transformed cells were maintained in RPMI medium 1640 supplemented with 10%
(§6) FBS. Expression of EGFR was examined by Western blot.
(§7) Immunoblotting and antibodies
(§8) Cells were lysed in RIPA buffer (150 mM NaCl, 1.0% IGEPAL® CA-630, 0.5% sodium deoxycholate, 0.1% SDS, 50 mM Tris, pH 8.0) (Sigma, Cat# R0278) with protease inhibitor and phosphatase inhibitor (Roche). The protein concentrations were measured by BCA analysis (Thermo Fisher Scientific, Cat # PI23225). […]
(§9) or IRDye 680RD goat anti-Mouse IgG (LICOR Biosciences , Cat # 926-68070) secondary antibodies at room temperature for 1 hour. The membranes were detected on Odyssey CLx system. […]
(§10) treatment. Cell viability was determined by using CellTiter-Glo (Promega #G7571) according to the manufacturer’s instructions, measuring luminescence using an Envision plate-reader (PerkinElmer Inc.). […]
(§11) After 6 hours treatment, cells were pelleted, washed with PBS once and lysed with IP lysis buffer (25mMTris-HCl pH 7.4, 150mM NaCl, 1 mM EDTA, 1% NP-40 and 5% glycerol) (Thermo Fisher Scientific, Cat#87788) containing protease/phosphatase inhibitor cocktail (Roche). The protein concentrations were measured by BCA analysis (Pierce). […]

[2] = system: EGFR^L858R/C775S Ba/F3 cells; experiment: Antiproliferation assay (CellTiter-Glo); assay type: cell-based; settings: vs EGFR^L858R Ba/F3
Procedure: as §1, §2, §3, §4, §5, §6, §7, §8, §9, §10, §11

[3] = target: T1, MKK7 (Homo sapiens, UniProt O14733); experiment: MKK7 binding, KdELECT assays (DiscoverX); settings: for fold loss of potency: vs ZNL-8162
T1 construct: purchased DiscoverX
T1 sequence (O14733 1-419): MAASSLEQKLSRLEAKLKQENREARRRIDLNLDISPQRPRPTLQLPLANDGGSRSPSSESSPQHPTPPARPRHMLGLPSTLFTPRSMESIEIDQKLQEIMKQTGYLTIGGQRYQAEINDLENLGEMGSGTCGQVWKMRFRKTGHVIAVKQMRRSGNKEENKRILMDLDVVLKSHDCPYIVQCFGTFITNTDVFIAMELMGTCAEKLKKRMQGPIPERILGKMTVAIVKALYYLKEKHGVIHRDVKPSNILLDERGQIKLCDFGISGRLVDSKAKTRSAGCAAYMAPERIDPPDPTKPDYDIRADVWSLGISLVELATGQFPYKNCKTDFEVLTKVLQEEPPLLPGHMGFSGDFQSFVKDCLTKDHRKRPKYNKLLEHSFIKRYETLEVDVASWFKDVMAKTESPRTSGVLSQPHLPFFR
From the text: Figure 2 ZNL-8162 is a molecular bident for MKK7. (A) Compound structures for MKK7-targeting molecular bident (ZNL-8162) and its relatives lacking one or both cysteine-reactive groups. (B) Covalent modeling for ZNL-8162 engagement of MKK7(PDB: 6YG3). (C) MS/MS spectrum of ZNL-8162 covalently modifying Cys218 and Cys276 of MKK7. Red and yellow circles indicate ions of type y for sequences marked (1) and (2), respectively. Blue circles indicate ions of b for sequence (1). *, carbamidomethyl cysteine, Δ, oxidized methionine. (D) MKK7 binding data were obtained from KdELECT assays (DiscoverX). Data are presented as mean ± s.d. of n = 2 biologically independent samples.
Table S2. […]

[4] = system: p-JNK1/2; experiment: Immunoblot of MKK7-JNK pathway in MDA-MB-231 cells; assay type: cell-based; settings: MDA-MB-231, anisomycin, 16 h, up to 10 μM
Procedure: Figure S1. Effects of the indicated compounds on the MKK7 -JNK pathway in MDA -MB-231 cells after 16 h treatment. MDA -MB-231 cells were pretreated with anisomycin for 45 min prior to the addition of the indicated compounds f or 16 h. Representative data from two independent […]
Anisomycin (10 μg/mL) - + + +
(1 picture or pasted object on this page, not shown here) […]
as §7
Cells were lysed in RIPA buffer (150 mM NaCl, 1.0% IGEPAL® CA-630, 0.5% sodium deoxycholate, 0.1% SDS, 50 mM Tris, pH 8.0) (Sigma, Cat# R0278) with protease inhibitor and phosphatase inhibitor (Roche). The protein concentrations were measured by BCA analysis (Thermo Fisher Scientific, Cat # PI23225). Equal amounts of protein were resolved by 4-12% Bis-Tris gels (Life Technologies), and then transferred to the Immuno-Blot PVDF membrane (BioRad, cat # 1620177). The membranes were blocked by Intercept blocking buffer (LI-COR, cat #927-60001) for 1 hour at room temperature. Proteins were probed with appropriate primary antibodies at 4 ℃ overnight and then with IRDye®800-labeled goat anti-rabbit IgG (LICOR Biosciences, cat […]
or IRDye 680RD goat anti-Mouse IgG (LICOR Biosciences , Cat # 926-68070) secondary antibodies at room temperature for 1 hour. The membranes were detected on Odyssey CLx system.
Antibodies used in this study include anti-following proteins: EGFR (Cell signaling Technology, […]
Akt (Cell signaling Technology, # 9272L, 1:1000), p-Akt (Cell Signaling Technology, #4060S,

[5] = system: T2, EGFR; experiment: Cellular target engagement assays (competitive pulldown); assay type: cell-based; settings: 1 μM probe
T2 construct: expressed in transfected cells; host or cells: Ba/F3 (murine pro-B cells transduced with an EGFR mutant expression vector)
Procedure: Figure 4 ZNL-0056 covalently engages Cys775 and Cys797 in EGFR Ba/F3 cells. (A) Carton of competition EGFR pulldown strategy to test covalent EGFR engagement in cells. (B) Competitive pulldown assay in EGFR^L858R Ba/F3 cells treated with ZNL-0056 at the indicated concentrations for 6 h. Cell lysates were incubated with bio-osimertinib. (C) Competitive pulldown assay in EGFR^L858R Ba/F3 cells treated with ZNL-0056 at the indicated concentrations for 6 h. Cell lysates were incubated with bio-ZNL-0013, which competes for the binding pocket of the target kinase. (D) Competitive pulldown assay in EGFR^L858R/C797S Ba/F3 cells treated with ZNL-0056 at the indicated concentrations for 6 h. Cell lysates were incubated with bio-ZNL-0013, which competes for the binding pocket of the target kinase. Western blotting showing the pulldown (PD) or input (total lysate) of EGFR. […]
as §10, §11

[6] = Figure 2D, read-out: IC50 against MKK7

Compound	IC50 [3, 6] [nM]	inhibition of p-JNK1/2 [4]	fold loss of potency [3] [fold]	also measured
C=CC(=O)Nc1cc(C(=O)Nc2nc3cccc(C)c3n2[C@@H]2CCCCN(C(C)=O)C2)cs1 [ZNL-0013]	–	–	–	cell growth inhibition activity, fold weaker [1]: about 5 fold; potency loss (shift) in the EGFR^L858R/C775S mutant [2]: 20 fold
C=CC(=O)Nc1ccccc1Nc1nc(NC2CCN(C(=O)C=C)C2)ncc1Cl (centres unmarked) [ZNL-8162]	133	strong inhibition	–	IC50 ([3]; from ZNL-8163 and ZNL-8165 IC50 data, read-out: IC50 estimated from single warhead compounds assuming independent contributions from both covalent bonds): ~182 nM
C=CC(=O)Nc1ccccc1Nc1nc(NC2CCN(C(=O)CC)C2)ncc1Cl (centres unmarked) [ZNL-8163]	437	less potency	~3	–
C=CC(=O)N1CCC(Nc2ncc(Cl)c(Nc3ccccc3NC(=O)CC)n2)C1 (centres unmarked) [ZNL-8165]	313	less potency	~3	–
CCC(=O)Nc1ccccc1Nc1nc(NC2CCN(C(=O)CC)C2)ncc1Cl (centres unmarked) [ZNL-8166]	> 10000	did not exhibit any inhibition	–	–
C=CC(=O)Nc1cc(C(=O)Nc2nc3cccc(C)c3n2[C@@H]2CCCCN(C(=O)CCOCCOCCOCCOCCNC(=O)CCCC[C@@H]3SC[C@@H]4NC(=O)N[C@@H]43)C2)cs1 [bio-ZNL-0013]	–	–	–	enrichment of EGFR from cell lysate under denaturing conditions [5]: significant enrichment
